Results published in the NIST ThermoML archive (doi:10.1021/je6005423).
± gives the expanded uncertainty stated by the source.

Columns and labels:
[1] = molar heat capacity at constant pressure; conditions: 101.33 kPa
[2] = Crystal
[3] = Molar enthalpy of transition or fusion; conditions: Crystal

CN(C)c1ccncc1 [4-(dimethylamino)pyridine]
[1], Crystal
Conditions | molar heat capacity at constant pressure [J/K/mol]
301.34 K | 183.53 ± 2.9
304.44 K | 184.83 ± 2.9
307.47 K | 185.41 ± 2.9
310.42 K | 187.12 ± 2.9
313.4 K | 188.44 ± 3
316.42 K | 189.79 ± 3
319.4 K | 191.08 ± 3
322.4 K | 192.54 ± 3
325.41 K | 193.75 ± 3
328.42 K | 194.7 ± 3
331.5 K | 195.13 ± 3
334.53 K | 196.95 ± 3.1
337.56 K | 198.33 ± 3.1
340.67 K | 200.84 ± 3.1
342.97 K | 199.88 ± 3.1
343.66 K | 201.99 ± 3.1
343.86 K | 200.32 ± 3.1
345.56 K | 201.09 ± 3.1
346.45 K | 202.23 ± 3.1
346.7 K | 203.24 ± 3.1
348.77 K | 203.52 ± 3.1
349.62 K | 204.76 ± 3.2
349.67 K | 205.23 ± 3.2
351.86 K | 205.79 ± 3.2
352.63 K | 206.7 ± 3.2
352.69 K | 207.19 ± 3.2
354.94 K | 207.38 ± 3.2
355.72 K | 208.46 ± 3.2
355.82 K | 209.44 ± 3.2
358.07 K | 209.19 ± 3.2
358.46 K | 210.78 ± 3.2
359.14 K | 211.21 ± 3.2
361.26 K | 211.54 ± 3.2
361.64 K | 213.95 ± 3.3
362.4 K | 212.78 ± 3.3
364.46 K | 214.96 ± 3.3
364.97 K | 216.45 ± 3.3
365.52 K | 215.57 ± 3.3
367.64 K | 216.47 ± 3.3
368.27 K | 219.21 ± 3.3
368.63 K | 217.48 ± 3.3
370.81 K | 219.17 ± 3.3
371.06 K | 221.32 ± 3.4
371.59 K | 220.81 ± 3.4
373.98 K | 222.94 ± 3.4
374.28 K | 223.05 ± 3.4
374.54 K | 223.68 ± 3.4
377.12 K | 225.02 ± 3.4
377.36 K | 225 ± 3.4
377.66 K | 225.68 ± 3.4
380.18 K | 228.35 ± 3.5
380.23 K | 226.87 ± 3.4
380.77 K | 227.73 ± 3.4
383.33 K | 231.81 ± 3.5

[1], Liquid, Small (less than 1 g) adiabatic calorimetry
Conditions | molar heat capacity at constant pressure [J/K/mol]
388.4 K | 231.37 ± 1.6
389.73 K | 233.89 ± 1.6
389.99 K | 232.72 ± 1.6
390.88 K | 233.99 ± 1.6
392.95 K | 234.74 ± 1.6
393.17 K | 234.28 ± 1.6
393.33 K | 235.41 ± 1.6
395.77 K | 236.28 ± 1.6
396.07 K | 235.35 ± 1.6
396.35 K | 235.97 ± 1.6
398.22 K | 237.66 ± 1.6
399.18 K | 236.11 ± 1.6
399.52 K | 236.69 ± 1.6
402.29 K | 237.05 ± 1.6
402.68 K | 237.16 ± 1.6

Conditions | Molar enthalpy of transition or fusion, Adiabatic calorimetry [kcal/mol] | Molar enthalpy of transition or fusion, DSC [kcal/mol] | Normal melting temperature, Adiabatic calorimetry [°C] | Normal melting temperature, DTA [°C]
[2] | – | – | 113.94 ± 0.039 | 114.0 ± 0.5
[3] | 5.17 ± 0.0693 | 5.17 ± 0.153 | – | –
